Source: PMC8991007, “Benzylic Dehydroxylation of Echinocandin Antifungal Drugs Restores Efficacy against Resistance Conferred by Mutated Glucan Synthase” (Journal of the American Chemical Society, 2022)
Like-named read-outs stand apart in the source and are kept apart here. *1 amine or outer side, *2 acyl side, *3 side chain or, on linkers, in order; H or OH if unused. Where a SMILES comes first, the peptide text is derived from it. Bridges are numbered along the chain shown (N, C = ends). [ ]: non-standard residue; d: D form. The star is where a group is joined. Orn(4R-OH,5R-OCH2CH2NMe3+) = C[N+](C)(C)CCO[C@@H](N[*:3])[C@H](O)C[C@H](N[*:1])C(=O)[*:2]; pTerphenylCO(4''-OnC5H11) = CCCCCOc1ccc(-c2ccc(-c3ccc(C(=O)*)cc3)cc2)cc1; Orn(4R-OH,5R-OH) = O=C([C@H](C[C@@H](O)[C@@H](O)N[*:3])N[*:1])[*:2]; hTyr(3S-OH,4S-OH) = N[C@H](C(=O)O)[C@H](O)[C@@H](O)c1ccc(O)cc1; Pro(3S-OH,4S-Me) = C[C@H]1CN[C@H](C(=O)O)[C@H]1O; hTyr(3R-OH) = N[C@H](C(=O)O)[C@H](O)Cc1ccc(O)cc1; Hyp = O=C(O)[C@@H]1C[C@@H](O)CN1

Key:
[1] = set-up: method as in PMID 23335738; conditions: patients with candidemia or invasive candidiasis, 200 mg loading dose day 1 then daily 100 mg; cited from earlier work
Hs 578T = test: Phenotypic viability assay of GFP reporter cell line; format: cell-based; conditions: Homo sapiens; Hs 578T expressing GFP, 24 h, mean ± SD
Experimental: In this analysis, we used HCT-116, a human colorectal carcinoma cell line; UACC-62, a human melanoma cell line; Hs 578T, a human mammary gland carcinoma cell line, and SF-295, a human glioblastoma cell line. […] The highest concentration of the echinocandins used for the cell viability tests was determined based on the reported maximal plasma concentrations (Cmax) of ANF and RZF measured in humans. A Cmax of approximately 7 μM was measured during a pharmacokinetic study of ANF in patients with candidemia or invasive candidiasis who were treated with a 200 mg loading dose on day 1, followed by a daily 100 mg maintenance dose.[64]
Human cell lines HCT-116, UACC-62, Hs 578T, and SF-295 were obtained from the Life Sciences Core Facilities of the Nancy & Stephen Grand Israel National Center for Personalized Medicine. Cell lines were grown in an RPMI medium (Gibco, cat. no. 21875-034) supplemented with 10% fetal calf serum (Biological Industries, cat. no. 04-007-1A), Pen/Strep (Biological Industries, cat. no. 03-031-1B), and glutamine (Biological Industries, cat. no. 03-020-1B). GFP was introduced into cells using TALENS according to a previously reported protocol.[73] GFP cells were selected by FACS and propagated.
Assay-ready plates were designed using in-house software (CHEMPION, INCPM software development team) and prepared in 384-well Greiner plates (cat. no. 781091) using an Echo 555 Acoustic Liquid Handler (Labcyte). The final DMSO concentration in all samples was 0.4%. Prior to the experiment, cells were trypsinized and counted using a Countess cytometer. Cells were then diluted to 40,000 cells/mL in a fresh medium. Cells (50 μL/well; 2000 cells/well) were then dispensed with a Thermo Combi dispenser into plates containing predispensed compounds. After 30 min at room temperature to ensure uniform adherence of cells, the plates were moved to an automated incubator (Liconic STX44) and incubated at 37 °C. An automated confocal microscope with a 4× S Fluor lens (Molecular Devices ImageExpress) was used to acquire images of GFP-expressing cells after 24 h of incubation. Images were then analyzed using MetaExpress with a custom protocol (Custom Module Editor), and data were annotated and normalized using Genedata Screener software. Final normalized data were then loaded into CDD Vault software for comparative data visualization.

[2] = healthy volunteers, single 400 mg dose, a few hours after administration; cited from earlier work

Compound | Cmax [1] [µM] | IC50 (Hs 578T) [µM] | Cmax [2] [µM]
CCCCCOc1ccc(-c2ccc(-c3ccc(C(=O)N[C@H]4C[C@@H](O)[C@@H](O)NC(=O)[C@@H]5[C@@H](O)[C@@H](C)CN5C(=O)[C@H]([C@@H](C)O)NC(=O)[C@H]([C@H](O)[C@@H](O)c5ccc(O)cc5)NC(=O)[C@@H]5C[C@@H](O)CN5C(=O)[C@H]([C@@H](C)O)NC4=O)cc3)cc2)cc1 [ANF, anidulafungin] ({pTerphenylCO(4''-OnC5H11)}-[Orn(4R-OH,5R-OH)]T[Hyp][hTyr(3S-OH,4S-OH)]T[Pro(3S-OH,4S-Me)]; lactam 1-C) | ~7 | > 40 | –
CCCCCOc1ccc(-c2ccc(-c3ccc(C(=O)N[C@H]4C[C@@H](O)[C@@H](O)NC(=O)[C@@H]5[C@@H](O)[C@@H](C)CN5C(=O)[C@H]([C@@H](C)O)NC(=O)[C@H]([C@H](O)Cc5ccc(O)cc5)NC(=O)[C@@H]5C[C@@H](O)CN5C(=O)[C@H]([C@@H](C)O)NC4=O)cc3)cc2)cc1 [Compound 1, dehydroxy-ANF] ({pTerphenylCO(4''-OnC5H11)}-[Orn(4R-OH,5R-OH)]T[Hyp][hTyr(3R-OH)]T[Pro(3S-OH,4S-Me)]; lactam 1-C) | – | > 40 | –
CCCCCOc1ccc(-c2ccc(-c3ccc(C(=O)N[C@H]4C[C@@H](O)[C@@H](OCC[N+](C)(C)C)NC(=O)[C@@H]5[C@@H](O)[C@@H](C)CN5C(=O)[C@H]([C@@H](C)O)NC(=O)[C@H]([C@H](O)Cc5ccc(O)cc5)NC(=O)[C@@H]5C[C@@H](O)CN5C(=O)[C@H]([C@@H](C)O)NC4=O)cc3)cc2)cc1 [Compound 2, dehydroxy-RZF] ({pTerphenylCO(4''-OnC5H11)}-[Orn(4R-OH,5R-OCH2CH2NMe3+)]T[Hyp][hTyr(3R-OH)]T[Pro(3S-OH,4S-Me)]; lactam 1-C) | – | > 40 | –
CCCCCOc1ccc(-c2ccc(-c3ccc(C(=O)N[C@H]4C[C@@H](O)[C@@H](OCC[N+](C)(C)C)NC(=O)[C@@H]5[C@@H](O)[C@@H](C)CN5C(=O)[C@H]([C@@H](C)O)NC(=O)[C@H]([C@H](O)[C@@H](O)c5ccc(O)cc5)NC(=O)[C@@H]5C[C@@H](O)CN5C(=O)[C@H]([C@@H](C)O)NC4=O)cc3)cc2)cc1 [RZF, rezafungin] ({pTerphenylCO(4''-OnC5H11)}-[Orn(4R-OH,5R-OCH2CH2NMe3+)]T[Hyp][hTyr(3S-OH,4S-OH)]T[Pro(3S-OH,4S-Me)]; lactam 1-C) | – | > 40 | ~17
